# Read-outs that look alike come from different tables or passages of the source.
# Experiments:
# [1] = test system: Moraxella species (including Moraxella catarrhalis); test: MIC, 25 ocular isolates, broth microdilution (Example 8); type: cell-based
# Procedure: (§1) Mueller-Hinton Broth supplemented with 2% lysed horse blood in tubes was inoculated with 25 ocular isolates of Streptococcus pneumoniae, Streptococcus viridans group, and Moraxella species (including Moraxella catarrhalis) plus two controls (Staphylococcus aureus and E. coli) and incubated at 37° C. overnight. Additionally, Mueller-Hinton Broth in tubes was inoculated with two controls (Staphylococcus aureus and E. coli) and incubated at 37° C. overnight on a shaker set at 250 rpm.
# (§2) On the day of testing, a 640 μg/ml (1280 μg/ml for Serratia marcescens and Pseudomonas aeruginosa) concentration was prepared from a 1% stock solution in 0.01% acetic acid, 0.2% BSA in polypropylene tubes.
# (§3) Serial doubling dilutions in 0.01% acetic acid, 0.2% BSA in 96 well polypropylene plates, which are used as reservoirs for the inoculation of the test plates, were carried out to obtain serial dilutions of test agents at 10 times the required test concentrations: 640, 320, 160, 80, 40, 20, 10, 5, 2.5, 1.25, and 0.625 μg/ml (1280, 640, 320, 160, 80, 40, 20, 10, 5, 2.5, and 1.25 μg/ml for Serratia marcescens and Pseudomonas aeruginosa).
# (§4) Ten μl of diluted 10×test agents was added to each well of one row of the 96 well polypropylene plates from column 2 to column 12 (column 1 is a control for bacteria alone, with no peptide). Test agent concentrations in columns 2-12 were as follows: 64, 32, 16, 8, 4, 2, 1, 0.5, 0.25, 0.125, and 0.0625 μg/ml (128, 64, 32, 16, 8, 4, 2, 1, 0.5, 0.25, and 0.125 μg/ml for Serratia marcescens and Pseudomonas aeruginosa). The same peptide was in each of the 8 rows. One plate contained dilutions of one test agent and 8 bacterial isolates.
# (§5) On the day of testing, the overnight bacterial broth cultures of Streptococcus pneumoniae, Streptococcus viridans and Moraxella species (including Moraxella catarrhalis) plus two controls (Staphylococcus aureus and E. coli) were diluted in 5 ml of trypticase soy broth to yield turbidity equal to a 0.5 McFarland standard. The final inoculum for MIC testing for Streptococcus pneumoniae, Streptococcus viridans and Moraxella species (including Moraxella catarrhalis) was achieved by placing 0.1 ml of the turbidity adjusted sample to 5 ml of Mueller-Hinton broth containing 2% lysed horse red blood cells.
# (§6) Ninety μl of the bacterial suspensions was dispensed in each well from column 1 to column 12. Each bacterial isolate was placed in one row of a 96 well polypropylene plate containing the test agents. The plates were placed on shaker at 15 minutes at room temperature, and then incubated at 37° C. overnight. MICs were determined visually as the lowest concentration of drug that inhibits visible bacterial growth.
# Streptococcus pneumoniae = test: as above; type: cell-based; conditions: for MIC: Streptococcus pneumoniae
# Procedure: as §1, §2, §3, §4, §5, §6
# [2] = n=25 isolates, >64 replaced with 128
smiles,measurement,setting,value
N=C(N)NCCCCC(=O)Nc1cc(C(F)(F)F)cc(NC(=O)c2cnc(C(=O)Nc3cc(C(F)(F)F)cc(NC(=O)CCCCNC(=N)N)c3SCCN)cn2)c1SCCN [Oligomer 5],MIC,"[1]; Moraxella, 25 ocular isolates, Mueller-Hinton broth with 2% lysed horse red blood cells, read-out: Median MIC",≤ 4 µg/mL
same,MIC,"[1]; Moraxella, isolate 1 K1614 - MS, read-out: MIC",64 µg/mL
same,MIC,"[1]; Moraxella, isolate 2 K1661 - MS, read-out: MIC",16 µg/mL
same,MIC,"[1]; Moraxella, isolate 3 K1643 - MS, read-out: MIC",0.125 µg/mL
same,MIC,"[1]; Moraxella, isolate 4 K1640 - MS, read-out: MIC",8 µg/mL
same,MIC,"[1]; Moraxella, isolate 5 B1431 - MS, read-out: MIC",0.5 µg/mL
same,MIC,"[1]; Moraxella, isolate 6 B1429 - MS, read-out: MIC",1 µg/mL
same,MIC,"[1]; Moraxella, isolate 7 B1418 - MS, read-out: MIC",0.25 µg/mL
same,MIC,"[1]; Moraxella, isolate 8 K1784 - MS, read-out: MIC",0.25 µg/mL
same,MIC,"[1]; Moraxella, isolate 9 K1773 - MS, read-out: MIC",0.25 µg/mL
same,MIC,"[1]; Moraxella, isolate 10 K1369 - MS, read-out: MIC",2 µg/mL
same,MIC,"[1]; Moraxella, isolate 11 B1275 - MS, read-out: MIC",0.125 µg/mL
same,MIC,"[1]; Moraxella, isolate 12 B1221 - MS, read-out: MIC",0.125 µg/mL
same,MIC,"[1]; Moraxella, isolate 13 B1172 - MS, read-out: MIC",> 64 µg/mL
same,MIC,"[1]; Moraxella, isolate 14 E542 - MS, read-out: MIC",2 µg/mL
same,MIC,"[1]; Moraxella, isolate 15 K678 - MS, read-out: MIC",0.5 µg/mL
same,MIC,"[1]; Moraxella, isolate 16 K660 - MS, read-out: MIC",0.25 µg/mL
same,MIC,"[1]; Moraxella, isolate 17 K599 - MC, read-out: MIC",0.25 µg/mL
same,MIC,"[1]; Moraxella, isolate 18 K1650 - MC, read-out: MIC",0.25 µg/mL
same,MIC,"[1]; Moraxella, isolate 19 K1373 - MC, read-out: MIC",0.125 µg/mL
same,MIC,"[1]; Moraxella, isolate 20 K1553 - MC, read-out: MIC",2 µg/mL
same,MIC,"[1]; Moraxella, isolate 21 K1453 - MC, read-out: MIC",64 µg/mL
same,MIC,"[1]; Moraxella, isolate 22 K1227 - MC, read-out: MIC",1 µg/mL
same,MIC,"[1]; Moraxella, isolate 23 B1102 - MC, read-out: MIC",0.5 µg/mL
same,MIC,"[1]; Moraxella, isolate 24 K1819 - MC, read-out: MIC",32 µg/mL
same,MIC,"[1]; Moraxella, isolate 25 K1855 - MC, read-out: MIC",8 µg/mL
same,MIC50,"[1]; Moraxella, n=25 isolates, >64 replaced with 128, read-out: MIC50",0.5 µg/mL
same,MIC90,"[1]; Moraxella, n=25 isolates, >64 replaced with 128, read-out: MIC90",32 µg/mL
same,MIC,"[1]; Moraxella, n=25 isolates, >64 replaced with 128, read-out: Median MIC",0.5 µg/mL
same,MIC50,[1]; [2],0.5 µg/mL
same,MIC90,[1]; [2],32 µg/mL
same,Range of MICs,[1]; [2],0.125 to 128 µg/mL
same,MIC50,"Streptococcus pneumoniae; 25 isolates, Row 13",4 µg/mL
same,MIC90,"Streptococcus pneumoniae; 25 isolates, Row 22",16 µg/mL
same,Range of MICs,"Streptococcus pneumoniae; 25 isolates, Summary of Results, >64 was Replaced with 128",4 to 128 µg/mL
same,MIC,"Streptococcus pneumoniae; 25 ocular isolates, Mueller-Hinton broth with 2% lysed horse red blood cells, read-out: Median MIC",≤ 4 µg/mL
same,MIC,"Streptococcus pneumoniae; isolate 1—B1386, read-out: MIC",> 64 µg/mL
same,MIC,"Streptococcus pneumoniae; isolate 2—B1380, read-out: MIC",4 µg/mL
same,MIC,"Streptococcus pneumoniae; isolate 3—B1378, read-out: MIC",0.5 µg/mL
same,MIC,"Streptococcus pneumoniae; isolate 4—B1377, read-out: MIC",8 µg/mL
same,MIC,"Streptococcus pneumoniae; isolate 5—B1373, read-out: MIC",8 µg/mL
same,MIC,"Streptococcus pneumoniae; isolate 6—B1367, read-out: MIC",16 µg/mL
same,MIC,"Streptococcus pneumoniae; isolate 7—B1355, read-out: MIC",8 µg/mL
same,MIC,"Streptococcus pneumoniae; isolate 8—B1353, read-out: MIC",4 µg/mL
same,MIC,"Streptococcus pneumoniae; isolate 9—B1351, read-out: MIC",1 µg/mL
same,MIC,"Streptococcus pneumoniae; isolate 10—B1339, read-out: MIC",2 µg/mL
same,MIC,"Streptococcus pneumoniae; isolate 11—B1337, read-out: MIC",1 µg/mL
same,MIC,"Streptococcus pneumoniae; isolate 12—B1335, read-out: MIC",1 µg/mL
same,MIC,"Streptococcus pneumoniae; isolate 13—B1334, read-out: MIC",1 µg/mL
same,MIC,"Streptococcus pneumoniae; isolate 14—B1333, read-out: MIC",1 µg/mL
same,MIC,"Streptococcus pneumoniae; isolate 15—B1255, read-out: MIC",1 µg/mL
same,MIC,"Streptococcus pneumoniae; isolate 16—B1288, read-out: MIC",8 µg/mL

# Reference: patent publication US20130065818A1, “Arylamide Compounds And Compositions And Uses Thereof” (POLYMEDIX, priority 2006, published 2013)
